Experimental data from the NIST ThermoML archive (doi:10.1021/je060204g).

Conditions: 101 kPa, Liquid mixture 1, Drop weight

Cc1ccccc1 [toluene] + O
Conditions	interfacial tension [mN/m]
293.15 K	37.1
298.15 K	36.1
303.15 K	35.5
308.15 K	35.1
313.15 K	34.7
323.15 K	34.3
